Measurements reported in patent USRE49579E1, “Non-peptidic GAPDH aggregation inhibitor” (University Public Corporation Osaka, priority 2015, dated 2023).
Where two headings read alike, the source gives them in different places. Residues, ends and D or L forms follow the SMILES beside them. No end group written: not given here.

How the values were obtained:
purified human GAPDH [1] = target: T1, purified human GAPDH (Homo sapiens, UniProt P04406); experiment: GAPDH aggregation inhibitory activity (first screening, turbidity at 405 nm); format: biochemical; settings: for 1st. Screening Potency Inhibitory activity (%) (50 μM at 48 h) in vitro: 50 μM peptide, 5 μM GAPDH, 37° C.
Description: As the first screening, GAPDH aggregation inhibitory activities, which represents potency, were measured. According to a method described in Patent Document 1, a peptide was added to a solution in which 5 μM purified human GAPDH was dissolved in Buffer G2 so that, the concentration of the peptide was 50 μM, and then incubated at 37° C. for 48 hours. Then the aggregation inhibitory rate of GAPDH was measured using the turbidity (absorbance at 405 nm) of the solution.

[2] = Cytotoxicity: viability of PC12 cells in the presence of peptide (second screening A); format: cell-based; settings: rat, PC12 cells
Description: (§1) As the second screening, A) the viability of PC12 cells in the presence of a peptide, which represented cytotoxicity, B) effects on the GAPDH enzymatic activity, which represented side effects, and C) effects on amyloid formation, which represented specificity, were each investigated.
(§2) PC12 cells cultured to 80% confluence were cultured at 37° C. for 72 hours in the presence of 50 μM peptide, and the cell viability was measured in accordance with the conventional method.

purified human GAPDH [3] = target: T1, purified human GAPDH; experiment: Side effects: effect on GAPDH enzymatic activity (second screening B); format: biochemical; settings: for 2nd. Screening Side effect Effect on GAPDH Activity (%) in vitro: 10 μM peptide, 0.01 μM GAPDH
Description: as §1
A 10 μM peptide was added to 0.01 μM purified human GAPDH, and the enzymatic activity of GAPDH was measured in accordance with a method described in Patent Document 1.

Aβ25-35 = target: T2, Aβ25-35 (Homo sapiens, UniProt P05067); experiment: Specificity: effect on amyloid formation (second screening C, fluorescence); format: biochemical; settings: 25 μM amyloid β, 37° C., 1 hour
T2 construct: Aβ25-35
Description: as §1
A solution containing 25 μM […] was incubated at 37° C. for 1 hour, and formation of amyloid aggregates was evaluated using the fluorescence intensity from the solution in accordance with a method described in Patent Document 1.

Aβ40-treated PC12 cells = experiment: Cytoprotective effects on Aβ1-40 induced PC12 cell death (third screening); format: cell-based
[4] = tested on: Aβ1-40 induced PC12 cell death; experiment: Protective effects on amyloid β induced cell death in the presence of GAPDH-Seeds; format: cell-based; settings: GAPDH-Seeds (1%), GAI-17 50 μM, FIG. 2
stroke model mouse = experiment: Cerebroprotective effects in a stroke model (MCAO); format: in vivo; settings: 60 nmol/mouse intraventricular, FIG. 4
Description: To a stroke model mouse, 60 nmol/mouse of a peptide was intraventricularly administered, and the reduction in cerebral infarction volume and the improvement in neurological symptoms after 24 hours were determined. The stroke model mouse was prepared in accordance with a method by of Andrabi et al. (Andrabi et al., Nat Med., 2011, June; 17(6): 692-9). A mouse was maintained under the state of ischemia for 30 minutes, and then perfusion was re-started. The cerebral infarction volume was measured […] after ischemia started. Further, in accordance with the method by Andrabi et al. (supra), a neurological score was determined for neurological symptoms of the mouse to evaluate the improvement in neurological symptoms.

PC12 cells = experiment: Cytotoxicity: viability of PC12 cells in the presence of peptide (second screening A); format: cell-based; settings: FIG. 7
Description: as §1, §2

[5] = read-out: IC50 (MEAN ± S.E.) for the GAPDH aggregation inhibitory activity in vitro

T1 sequence (P04406 whole entry): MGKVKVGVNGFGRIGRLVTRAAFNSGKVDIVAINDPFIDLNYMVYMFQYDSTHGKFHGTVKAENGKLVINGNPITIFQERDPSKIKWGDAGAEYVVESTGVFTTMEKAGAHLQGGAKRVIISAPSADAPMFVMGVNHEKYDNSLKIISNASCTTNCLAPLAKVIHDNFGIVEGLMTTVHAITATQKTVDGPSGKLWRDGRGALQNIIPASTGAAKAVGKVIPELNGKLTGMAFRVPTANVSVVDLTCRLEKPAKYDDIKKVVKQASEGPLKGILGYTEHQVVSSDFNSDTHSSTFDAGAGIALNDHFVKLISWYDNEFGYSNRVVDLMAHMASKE

Compound	1st. Screening Potency Inhibitory activity (%) (50 μM at 48 h) in vitro (purified human GAPDH [1])	IC50 (purified human GAPDH [1]; [5])	viability at 72 h, 50 µM [2]	2nd. Screening Side effect Effect on GAPDH Activity (%) in vitro (purified human GAPDH [3])	2nd. Screening Specificity Effect on Aβ25-35 amyloidogenesis (%) in vitro (Aβ25-35)	3rd. Screening Effectiveness Cytoprotection (%) in Aβ40-treated PC12 cells (Aβ40-treated PC12 cells)	protective effects on amyloid β40 induced PC12 cell death [4]	cerebral infarction volume (stroke model mouse)	neurological symptoms (stroke model mouse; after 24 hours)	aggregation inhibitory activity in the first screening, compared with lead compound (purified human GAPDH [1]; FIG. 6)	cytotoxicity in the second screening, compared with lead compound (PC12 cells)	GAPDH enzymatic activity in the second screening (purified human GAPDH [3]; FIG. 7)	IC50 (purified human GAPDH [1])	viability at 72 h, 50 µM ([2]; 50 μM peptide, 37° C., 72 hours, read-out: 2nd. Screening Cytotoxicity Cell viability (%) in PC12 cells)
C[C@@H](O)[C@H](NC(=O)[C@H](CS)NC(=O)[C@@H](N)CO)C(=O)O [GAI-17, SCT] (H-Ser-Cys-Thr-OH; N-terminus and C-terminus assumed)	97.7 ± 1.48%	1190 ± 150 nM	100 ± 0.76%	97.9 ± 0.72%	102 ± 6.39%	99.4 ± 1.21%	protective effects	decrease cerebral infarction volume	improve neurological symptoms					
C[C@@H](O)CNC(=O)[C@H](CS)NCCCO [TN-101]		900 ± 110 nM								superior to that of the lead compound	comparable with or smaller than those of the lead compound	uninhibited GAPDH enzymatic activity		
SNASCTTNAL [GAI-1, SNASCTTNAL, reference compound]	53.2 ± 1.73%			105 ± 1.80%	103 ± 9.94%	48.0 ± 3.85%							50000 ± 200 nM	104 ± 1.37%
